For one assay, the system named is E. coli ATCC 25922. Description: Antibiotic enhancement of erythromycin. Type of assay: cell-based. The note with it: for Erythro/E.c.: fold change, ratio between intrinsic MIC of test compound and combination MIC: erythromycin at 2.7 µM; for Erythro/E.c.: concentration required to restore erythromycin activity: erythromycin at 2.7 µM (2 µg/mL). The method, then:
[Worded in the source for another target; used here, by the source, with some conditions changed.] Antibiotic restoring enhancer concentrations were determined using reported protocols (see Supplementary File).
Briefly, restoring enhancer concentrations were determined with an inoculum of 5x10^5 CFU in 200 µL of MHB containing two-fold serial dilutions of each derivative in the presence of doxycycline at 4.5 […]
The lowest concentration of the polyamine
These measurements were independently repeated in triplicate.
Outer membrane permeabilization was measured using nitrocefin as a chromogenic substrate of periplasmic β-lactamase. Ten milliliters of MH broth were inoculated with 0.1 mL of an overnight culture of PAO1 bacteria and grown at 37°C until the OD600 reached 0.5. The remaining steps were performed at room temperature. Cells were recovered by centrifugation (4000 rpm for 20 min) and washed once in 20 mM potassium phosphate buffer (pH 7.2) containing MgCl2 (1 mM). After a second centrifugation, the pellet was resuspended and adjusted to OD600 of 0.5. Then, 50 µL of the desired compound was added to 100 µL of the cell suspension to obtain a final concentration varying from 3.9 µM to 250 µM. Fifty microliters of nitrocefin were then added to obtain a final concentration of 50 µg/mL. Nitrocefin hydrolysis was monitored spectrophotometrically by measuring the increase in absorbance at 490 nm. Assays were performed in 96-well plates using a M200 Pro Tecan […]
HEK293 cells were counted manually in a Neubauer hemocytometer and plated at a density of 5,000 cells/well into each well of the 384-well plates containing the 25x (2 µL) concentrated compounds [26,27]. The medium used was Dulbecco's modified Eagle’s medium (DMEM), supplemented with 10% fetal bovine serum (FBS). Cells were incubated together with the compounds for 20 h at 37 °C, 5% CO2.
To measure cytotoxicity, 5 µL (equals 100 µM final) of resazurin was added to each well after incubation and incubated for further 3 h at 37 °C with 5% CO2. After the final incubation, fluorescence intensity […]
reader. CC50 values (concentration at 50% cytotoxicity) were calculated by normalizing the fluorescence readout, with 74 µg/mL tamoxifen as negative control (0%) and normal cell growth as positive control (100%). The concentration-dependent percentage cytotoxicity was fitted to a dose–response function (using Pipeline Pilot) and CC50 values were determined.
Human whole blood was washed three times with three volumes of 0.9% NaCl and then resuspended in the same solution to a concentration of 0.5 x 10^8 cells/mL, as determined by the manual cell count in a Neubauer hemocytometer. The washed cells were then added to the 384-well compound-containing plates for a final volume of 50 µL. After a 10 min shake on a plate shaker, the plates were then incubated for 1 h at 37 °C. After incubation, the plates were centrifuged at 1,000g for 10 min to pellet cells and debris; 25 µL of the supernatant was then transferred to a polystyrene 384-well assay plate. Hemolysis was determined by measuring the supernatant absorbance at […] (OD405). The absorbance was measured using a Tecan M1000 Pro monochromator plate reader. HC10 and HC50 (concentration at 10% and 50% hemolysis, respectively) were calculated by curve fitting the inhibition values vs. log (concentration) using a sigmoidal dose–response function with variable fitting values for the top, bottom, and slope.
2.8. Real-time growth curves
Solutions of the compound at concentrations of 2, 4, and 16 µg/mL were tested each in triplicate against S. aureus ATCC 25923 [26]. Typically, in a 96-well plate were placed 10 µL of 40, 80, and 320 µg/mL stock solutions of compound, as well as 190 µL of a 5 x 10^5 CFU/mL of the selected bacterial suspension in brain heart infusion (BHI) broth. Positive controls containing only 200 µL of a 5 x 10^5 CFU/mL of bacterial suspension in BHI and negative controls containing only 200 µL of BHI broth were added. The plate was incubated at 37°C in a TECAN Spark Reader (Roche Diagnostic) and real-time […]

A further assay deals with P. aeruginosa PAO1. Description: Real-time growth inhibition curves, P. aeruginosa. Type of assay: cell-based. The settings on record: optical density during 18 h culturing.
For assay [1], the system named is C. neoformans ATCC 208821. In words: MIC, CO-ADD antifungal assay, C. neoformans. Type of assay: cell-based, Cryptococcus neoformans. The settings on record: for MIC: Cryptococcus neoformans, ATCC208821, mean (n = 2). The method, then:
The susceptibility of bacterial strains S. aureus (ATCC 25923), E. coli (ATCC 25922), and P. aeruginosa (ATCC 27853 or PAO1) to antibiotics and compounds was determined using reported protocols. Additional antimicrobial evaluation against MRSA (ATCC 43300), Klebsiella pneumoniae (ATCC 700603), A. baumannii (ATCC 19606), Candida albicans (ATCC 90028), and Cryptococcus neoformans (ATCC 208821) was undertaken at the Community for Open Antimicrobial Drug Discovery at The University of Queensland (Australia) according to their standard protocols as reported previously. […]
2.3. Antimicrobial Assays
The susceptibility of bacterial strains S. aureus (ATCC 25923), E. coli (ATCC 25922), and P. […]
baumannii (ATCC 19606), Candida albicans (ATCC 90028), and Cryptococcus neoformans (ATCC 208821) was undertaken at the Community for Open Antimicrobial Drug Discovery at The University of Queensland (Australia) according to their standard protocols as reported previously. […]
For the antifungal assay, fungi strains were cultured for 3 days on YPD agar at 30 °C. A yeast suspension of 1 × 106 to 5 × 10^6 CFU/mL was prepared from five colonies. These stock suspensions were diluted with yeast nitrogen base (YNB) (Becton Dickinson, 233520) broth to a final concentration of 2.5 × 10^3 CFU/mL. The compounds were serially diluted 2-fold across the wells of 96-well plates (Corning 3641, non-binding surface), with compound concentrations ranging from 0.015 to 64 µg/mL and final volumes of 50 µL, plated in duplicate. Then, 50 µL of the fungi suspension that was previously prepared in YNB broth to the final concentration of 2.5 × 10^3 CFU/mL was added to each well of the compound-containing plates, giving a final compound concentration range of 0.008 to 32 µg/mL. Plates were covered and incubated at 35 °C for 36 h without shaking. C. albicans MICs were determined by measuring the absorbance at OD530. For C. neoformans, resazurin was added at 0.006% final concentration to each well and incubated for a further 3 h before MICs were determined by measuring […]
Colistin and vancomycin were used as positive bacterial inhibitor standards for Gram-negative and Gram-positive bacteria, respectively. Fluconazole was used as a positive fungal inhibitor standard for C. albicans and C. neoformans. The antibiotics were provided in […], with 3 above and 3 below its MIC value, and plated into the first 8 wells of column 23 of the 384-well NBS plates. The quality control (QC) of the assays was determined by the antimicrobial controls and the Z'-factor (using positive and negative controls). Each plate was deemed to fulfil the quality criteria (pass QC) if the Z'- […]
inhibition at their highest concentration, and no growth inhibition at their lowest concentration.
2.4. Determination of the MICs of Antibiotics in the Presence of Synergizing Compounds

SMILES strings stand for the structures.

One may read the MIC as the least concentration at which growth counts as inhibited.

On to `C=C[C@]1(C)C[C@@H](OC(=O)CSCCN(CC)CC)[C@]2(C)[C@H](C)CC[C@]3(CCC(=O)[C@H]32)[C@@H](C)[C@@H]1O` [Compound 2, Tiamulin, reference compound], for which, in the assay on E. coli ATCC 25922, the “Erythro/E.c.: fold change, ratio between intrinsic MIC of test compound and combination MIC” value worked out at 0.5; the “Erythro/E.c.: concentration required to restore erythromycin activity” value (“Erythro/E.c.: concentration required” for short) was > 405 µM. Moreover, the “Real-time bacterial growth inhibition” value with P. aeruginosa PAO1 is reported as “No such inhibition”. In assay [1], the minimal inhibitory concentration (MIC) is > 64.8 µM. Also, in assay [1] (mean (n = 2)), the “MIC C.n.” value is recorded as “no activity”.

Take `C=C[C@]1(C)C[C@@H](OC(=O)CNCCCNCCCCNCCCNCC(=O)O[C@@H]2C[C@@](C)(C=C)[C@@H](O)[C@H](C)[C@]34CCC(=O)[C@H]3[C@@]2(C)[C@H](C)CC4)[C@]2(C)[C@H](C)CC[C@]3(CCC(=O)[C@H]32)[C@@H](C)[C@@H]1O.O=C(O)C(F)(F)F.O=C(O)C(F)(F)F.O=C(O)C(F)(F)F.O=C(O)C(F)(F)F` [Compound 9a, N^1,N^1′-(Butane-1,4-diyl)bis(N^3-(2-(((3aR,4R,5R,7S,8S,9R,9aS,12R)-8-hydroxy-4,7,9,12-tetramethyl-3-oxo-7-vinyldecahydro-4,9a-propanocyclopenta [8]annulen-5-yl)oxy)-2-oxoethyl)propane-1,3-diaminium) 2,2,2-trifluoroacetate]: the “Erythro/E.c.: fold change, ratio between intrinsic MIC of test compound and combination MIC” value with E. coli ATCC 25922 was 2. Moreover, in assay [1], the MIC was 0.72 µM.

Consider `C=C[C@]1(C)C[C@@H](OC(=O)CNCCCNCCCCCCCNCCCNCC(=O)O[C@@H]2C[C@@](C)(C=C)[C@@H](O)[C@H](C)[C@]34CCC(=O)[C@H]3[C@@]2(C)[C@H](C)CC4)[C@]2(C)[C@H](C)CC[C@]3(CCC(=O)[C@H]32)[C@@H](C)[C@@H]1O.O=C(O)C(F)(F)F.O=C(O)C(F)(F)F.O=C(O)C(F)(F)F.O=C(O)C(F)(F)F` [Compound 9c, N^1,N^1′-(Heptane-1,7-diyl)bis(N^3-(2-(((3aR,4R,5R,7S,8S,9R,9aS,12R)-8-hydroxy-4,7,9,12-tetramethyl-3-oxo-7-vinyldecahydro-4,9a-propanocyclopenta [8]annulen-5-yl)oxy)-2-oxoethyl)propane-1,3-diaminium) 2,2,2-trifluoroacetate], for which the “Erythro/E.c.: fold change, ratio between intrinsic MIC of test compound and combination MIC” value in the assay with E. coli ATCC 25922 came out at 2. Also, the MIC in assay [1] is ≤ 0.18 µM.

Regarding `C=C[C@]1(C)C[C@@H](OC(=O)CNCCCNCCCCCCCCCCCCNCCCNCC(=O)O[C@@H]2C[C@@](C)(C=C)[C@@H](O)[C@H](C)[C@]34CCC(=O)[C@H]3[C@@]2(C)[C@H](C)CC4)[C@]2(C)[C@H](C)CC[C@]3(CCC(=O)[C@H]32)[C@@H](C)[C@@H]1O.O=C(O)C(F)(F)F.O=C(O)C(F)(F)F.O=C(O)C(F)(F)F.O=C(O)C(F)(F)F` [Compound 9f, N^1,N^1′-(Dodecane-1,12-diyl)bis(N^3-(2-(((3aR,4R,5R,7S,8S,9R,9aS,12R)-8-hydroxy-4,7,9,12-tetramethyl-3-oxo-7-vinyldecahydro-4,9a-propanocyclopenta [8]annulen-5-yl)oxy)-2-oxoethyl)propane-1,3-diaminium) 2,2,2-trifluoroacetate], in the assay on E. coli ATCC 25922, the “Erythro/E.c.: fold change, ratio between intrinsic MIC of test compound and combination MIC” value stood at 0.5; the “Erythro/E.c.: concentration required” value worked out at 8.38 µM. In addition, the MIC in assay [1] is ≤ 0.17 µM.

As to `C=C[C@]1(C)C[C@@H](OC(=O)CNCCCNCCCCCCNCCCNCC(=O)O[C@@H]2C[C@@](C)(C=C)[C@@H](O)[C@H](C)[C@]34CCC(=O)[C@H]3[C@@]2(C)[C@H](C)CC4)[C@]2(C)[C@H](C)CC[C@]3(CCC(=O)[C@H]32)[C@@H](C)[C@@H]1O.O=C(O)C(F)(F)F.O=C(O)C(F)(F)F.O=C(O)C(F)(F)F.O=C(O)C(F)(F)F` [Compound 9b, N^1,N^1′-(Hexane-1,6-diyl)bis(N^3-(2-(((3aR,4R,5R,7S,8S,9R,9aS,12R)-8-hydroxy-4,7,9,12-tetramethyl-3-oxo-7-vinyldecahydro-4,9a-propanocyclopenta [8]annulen-5-yl)oxy)-2-oxoethyl)propane-1,3-diaminium) 2,2,2-trifluoroacetate], in the assay on E. coli ATCC 25922, the “Erythro/E.c.: fold change, ratio between intrinsic MIC of test compound and combination MIC” value amounted to 1; the “Erythro/E.c.: concentration required” value was found to be 8.88 µM. The MIC in assay [1] is ≤ 0.18 µM.

In the case of `C=C[C@]1(C)C[C@@H](OC(=O)CNCCCNCCCCCCCCNCCCNCC(=O)O[C@@H]2C[C@@](C)(C=C)[C@@H](O)[C@H](C)[C@]34CCC(=O)[C@H]3[C@@]2(C)[C@H](C)CC4)[C@]2(C)[C@H](C)CC[C@]3(CCC(=O)[C@H]32)[C@@H](C)[C@@H]1O.O=C(O)C(F)(F)F.O=C(O)C(F)(F)F.O=C(O)C(F)(F)F.O=C(O)C(F)(F)F` [Compound 9d, N^1,N^1′-(Octane-1,8-diyl)bis(N^3-(2-(((3aR,4R,5R,7S,8S,9R,9aS,12R)-8-hydroxy-4,7,9,12-tetramethyl-3-oxo-7-vinyldecahydro-4,9a-propanocyclopenta [8]annulen-5-yl)oxy)-2-oxoethyl)propane-1,3-diaminium) 2,2,2-trifluoroacetate], the “Erythro/E.c.: fold change, ratio between intrinsic MIC of test compound and combination MIC” value with E. coli ATCC 25922 came to 2. Besides, the MIC in assay [1] is ≤ 0.17 µM.
